Read-outs that look alike come from different tables or passages of the source.
Assays:
[1] = molecular target: T1, full-length human CSF-1R receptor (Homo sapiens, UniProt P07333); assay: In vitro inhibition of CSF-1R receptor tyrosine phosphorylation in transfected HEK293H cells stimulated with MCSF; type: cell-based; details: HEK293-H, read-out: pCSF1R percent inhibition
T1 construct: transfected with the full-length human CSF-1R receptor cloned in house; expressed in transfected cells; host or cells: HEK293H (Invitrogen Cat. #11631017)
Experimental: The lysate was then transferred to total CSF-1R antibody coated 96-well plates that had already been blocked with 3% Blocker A from Mesoscale discovery (MSD) for 2 hours and washed afterwards. Lysates were incubated overnight at 4° C. and the plates were then washed 4× with MSD Tris Wash Buffer. […] The plates were read on the Sector 6000 instrument (MSD). Raw data was imported in Abase and EC50s calculated with XL-fit data analysis software.

kinase domain of cKIT = molecular target: T2, kinase domain of cKIT (Homo sapiens, UniProt P10721); assay: Inhibition of cKIT kinase signaling in an in vitro biochemical assay (alphascreen); details: tested at about 1 μM, read-out: cKit percent inhibition
T2 construct: The kinase domain of cKIT was assayed in 50 mM Hepes; purchased Upstate 14-559

[2] = test system: MNFS60 (murine AML cells); assay: Cell viability assay in MCSF dependent MNFS60 cells (Cell Titer Glo); type: cell-based; details: Mus musculus, read-out: M-NFS-60 CP percent inhibition
In short: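 Compounds were serially diluted 3-fold in DMSO to 500× final and added to cells with MCSF at 10 ng/ml final. After 72 hrs at 37° C. under 5% CO2, viable cells were quantified by CellTiter-Glo luminescence; triplicate wells gave EC50 values by curve fitting.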

[3] = molecular target: T3, cytoplasmic domain of the human CSF-1R (Homo sapiens, UniProt P07333); assay: In vitro kinase assay for colony stimulating factor-1 receptor (AlphaScreen); type: biochemical; details: read-out: CSF-1R percent inhibition
T3 construct: Recombinant protein corresponding to the cytoplasmic domain of the human CSF-1R; purchased Invitrogen Corporation, Carlsbad, Calif; PV3249
T3 sequence (P07333 539-972 limits assumed): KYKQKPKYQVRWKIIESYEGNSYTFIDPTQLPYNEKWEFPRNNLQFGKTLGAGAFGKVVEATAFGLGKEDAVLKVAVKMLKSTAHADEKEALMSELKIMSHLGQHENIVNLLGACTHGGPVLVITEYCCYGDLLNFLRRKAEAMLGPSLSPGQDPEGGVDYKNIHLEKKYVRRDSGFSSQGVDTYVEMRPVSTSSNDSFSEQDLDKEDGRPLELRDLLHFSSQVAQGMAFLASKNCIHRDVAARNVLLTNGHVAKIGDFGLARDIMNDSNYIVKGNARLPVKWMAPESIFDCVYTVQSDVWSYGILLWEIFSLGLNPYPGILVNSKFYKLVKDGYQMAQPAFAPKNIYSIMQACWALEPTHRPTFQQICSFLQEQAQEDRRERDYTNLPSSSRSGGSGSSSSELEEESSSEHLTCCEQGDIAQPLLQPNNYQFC
In short: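 Tyrosine phosphorylation of a peptide substrate by 4 nM recombinant cytoplasmic-domain enzyme is measured at 1 μM ATP in Mn2+/Mg2+-containing Hepes buffer, pH 7.5. Detection uses PT66 AlphaScreen beads after overnight incubation.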

kinase domain of PDGFRβ = molecular target: T4, kinase domain of PDGFRβ (Homo sapiens, UniProt P09619); assay: Inhibition of PDGFRb kinase signaling in an in vitro biochemical assay (alphascreen); details: tested at about 1 μM, read-out: PDGFRβ percent inhibition
T4 construct: The kinase domain of PDGFRβ was assayed in 50 mM Hepes; purchased Invitrogen P3082

[4] = tested at about 1 μM, HEK293H cells
[5] = tested at about 1 μM, MNFS60 cells
[6] = tested at about 1 μM, compounds of Table 3
[7] = tested at about 1 μM, MCSF dependent MNFS60 cells

T1 sequence (P07333 20-972): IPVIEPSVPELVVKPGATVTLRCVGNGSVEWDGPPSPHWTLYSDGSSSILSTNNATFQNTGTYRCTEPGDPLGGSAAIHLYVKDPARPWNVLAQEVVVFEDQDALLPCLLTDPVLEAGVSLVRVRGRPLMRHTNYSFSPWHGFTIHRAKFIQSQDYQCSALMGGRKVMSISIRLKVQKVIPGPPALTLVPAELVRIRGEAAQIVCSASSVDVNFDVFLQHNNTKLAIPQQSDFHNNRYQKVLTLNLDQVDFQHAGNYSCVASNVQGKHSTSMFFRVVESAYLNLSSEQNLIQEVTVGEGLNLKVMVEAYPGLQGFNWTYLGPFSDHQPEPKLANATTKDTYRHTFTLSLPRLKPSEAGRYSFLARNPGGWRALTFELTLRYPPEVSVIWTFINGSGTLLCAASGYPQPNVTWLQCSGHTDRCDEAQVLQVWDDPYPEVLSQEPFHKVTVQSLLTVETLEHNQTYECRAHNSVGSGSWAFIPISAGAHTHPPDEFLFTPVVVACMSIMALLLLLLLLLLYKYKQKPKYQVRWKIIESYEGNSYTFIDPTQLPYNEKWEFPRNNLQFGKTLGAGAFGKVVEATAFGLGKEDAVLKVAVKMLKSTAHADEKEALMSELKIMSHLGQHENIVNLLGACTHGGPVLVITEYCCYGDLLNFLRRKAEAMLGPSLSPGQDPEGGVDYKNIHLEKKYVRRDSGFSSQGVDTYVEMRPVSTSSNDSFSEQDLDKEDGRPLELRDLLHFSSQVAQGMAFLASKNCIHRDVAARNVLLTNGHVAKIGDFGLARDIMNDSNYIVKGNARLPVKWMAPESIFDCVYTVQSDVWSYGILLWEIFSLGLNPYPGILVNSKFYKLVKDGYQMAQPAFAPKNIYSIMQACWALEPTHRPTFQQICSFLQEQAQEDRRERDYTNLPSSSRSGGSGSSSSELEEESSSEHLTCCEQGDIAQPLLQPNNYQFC
T2 sequence (P10721 589-937 limits assumed): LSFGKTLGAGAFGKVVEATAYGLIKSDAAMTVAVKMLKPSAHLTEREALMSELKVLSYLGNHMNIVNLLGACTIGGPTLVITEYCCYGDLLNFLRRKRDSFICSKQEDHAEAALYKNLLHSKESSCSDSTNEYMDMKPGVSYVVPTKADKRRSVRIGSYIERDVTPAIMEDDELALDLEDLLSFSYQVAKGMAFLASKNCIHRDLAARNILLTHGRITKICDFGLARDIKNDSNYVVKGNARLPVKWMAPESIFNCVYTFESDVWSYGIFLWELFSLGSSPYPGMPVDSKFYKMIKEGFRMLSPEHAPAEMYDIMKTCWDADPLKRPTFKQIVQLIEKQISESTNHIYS
T4 sequence (P09619 600-962 limits assumed): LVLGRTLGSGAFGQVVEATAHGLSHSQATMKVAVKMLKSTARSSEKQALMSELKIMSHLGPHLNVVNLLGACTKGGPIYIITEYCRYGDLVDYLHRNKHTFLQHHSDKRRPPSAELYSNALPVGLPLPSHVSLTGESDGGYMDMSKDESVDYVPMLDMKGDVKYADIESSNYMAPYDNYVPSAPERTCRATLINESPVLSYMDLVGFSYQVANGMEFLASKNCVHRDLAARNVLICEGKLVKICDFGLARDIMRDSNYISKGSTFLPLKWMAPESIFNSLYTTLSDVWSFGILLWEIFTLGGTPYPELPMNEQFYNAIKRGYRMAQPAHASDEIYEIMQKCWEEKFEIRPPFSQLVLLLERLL

Structure (SMILES) | inhibition at 1 µM [1, 4] [%] | inhibition at 1 µM (kinase domain of cKIT) [%] | inhibition at 1 µM [2, 5] [%] | inhibition at 1 µM ([3]; tested at about 1 μM) [%] | inhibition at 1 µM (kinase domain of PDGFRβ) [%] | inhibition at 1 µM [1, 6] [%] | inhibition at 1 µM (kinase domain of cKIT; compounds of Table 3) [%] | inhibition at 1 µM [2, 6] [%] | inhibition at 1 µM [3, 6] [%] | inhibition at 1 µM (kinase domain of PDGFRβ; compounds of Table 3) [%] | inhibition at 1 µM [2, 7] [%] | inhibition at 1 µM [1] [%] | inhibition at 1 µM [2] [%] | inhibition at 1 µM [3] [%]
CNC(=O)c1cc(Oc2ccc3nc(NCc4ccccc4N4CCCCC4)oc3c2)ccn1 [Compound 118, 4-[2-(2-Piperidin-1-yl-benzylamino)-benzooxazol-6-yloxy]-pyridine-2-carboxylic acid methylamide] | 69 | 95 | 83 | 100 | 49 | – | – | – | – | – | – | – | – | –
CNC(=O)c1cc(Oc2ccc3nc(NCc4ccc(Cl)cc4Cl)sc3c2)ccn1 [Compound 130, 4-[2-(2,4-Dichloro-benzylamino)-benzothiazol-6-yloxy]-pyridine-2-carboxylic acid methylamide] | 85 | 87 | 72 | 99 | 25 | – | – | – | – | – | – | – | – | –
CNC(=O)c1cc(Oc2ccc3nc(N[C@@H]4CCCC[C@H]4N)sc3c2)ccn1 [Example 297, 4-(2-((1R,2R)-2-aminocyclohexylamino)benzo[d]thiazol-6-yloxy)-N-methylpicolinamide] | – | – | – | – | – | 90 | 0 | 42 | 98 | 9 | – | – | – | –
Cn1cc(-c2cc(Oc3ccc4nc(NCC5CCCCC5)sc4c3)ccn2)cn1 [Example 340, N-(cyclohexylmethyl)-6-(2-(1-methyl-1H-pyrazol-4-yl)pyridin-4-yloxy)benzo[d]thiazol-2-amine] | 96 | 100 | – | 100 | 98 | – | – | – | – | – | 100 | – | – | –
CNC(=O)c1cc(Oc2ccc3nc(N[C@@H]4C[C@H]5CC[C@@H]4C5)sc3c2)ccn1 [Compound 128] | – | – | – | – | – | 88 | 29 | 82 | 100 | 20 | – | – | – | –
COc1ccc(-c2cc(Oc3ccc4nc(N[C@@H](C)C5CCCCC5)sc4c3)ccn2)cn1 [Example 279, (S)-N-(1-cyclohexylethyl)-6-(6'-methoxy-2,3'-bipyridin-4-yloxy)benzo[d]thiazol-2-amine] | – | – | – | – | – | 59 | 30 | 60 | 100 | 7 | – | – | – | –
Cc1nc(-c2cc(Oc3ccc4nc(N[C@@H](C)C5CCCCC5)sc4c3)ccn2)[nH]c1C [Example 269, (S)-N-(1-cyclohexylethyl)-6-(2-(4,5-dimethyl-1H-imidazol-2-yl)pyridin-4-yloxy)benzo[d]thiazol-2-amine] | – | – | – | – | – | 85 | 18 | 75 | 100 | 13 | – | – | – | –
CC(C)[C@@H](CO)Nc1nc2ccc(Oc3ccnc(-c4cnn(C)c4)c3)cc2s1 [Example 352, (S)-3-methyl-2-(6-(2-(1-methyl-1H-pyrazol-4-yl)pyridin-4-yloxy)benzo[d]thiazol-2-ylamino)butan-1-ol] | 97 | 45 | – | 100 | 74 | – | – | – | – | – | 100 | – | – | –
C[C@H](Nc1nc2ccc(Oc3ccnc(-c4ccc(N)nc4)c3)cc2s1)C1CCCCC1 [Example 276, (S)-6-(6'-amino-2,3'-bipyridin-4-yloxy)-N-(1-cyclohexylethyl)benzo[d] thiazol-2-amine] | – | – | – | – | – | 97 | 39 | 100 | 100 | 26 | – | – | – | –
O[C@@H]1CCCC[C@H]1Nc1nc2ccc(Oc3ccnc(-c4cccnc4)c3)cc2s1 [Example 345, (1R,2R)-2-(6-(2,3'-bipyridin-4-yloxy)benzo[d]thiazol-2-ylamino)cyclohexanol] | 93 | 19 | – | 100 | 13 | – | – | – | – | – | 97 | – | – | –
COc1ccc(-c2cc(Oc3ccc4nc(N[C@@H]5CCCC[C@H]5O)sc4c3)ccn2)cn1 [Cmpd 170, (1R,2R)-2-(6-(6'-methoxy-2,3'-bipyridin-4-yloxy)benzo[d]thiazol-2-ylamino)cyclohexanol] | – | – | – | – | – | 96 | 28 | 100 | 100 | 23 | – | – | – | –
O[C@@H]1CCCC[C@H]1Nc1nc2ccc(Oc3ccnc(-c4cscn4)c3)cc2s1 [Compound 159] | – | – | – | – | – | 96 | 29 | 98 | 100 | 23 | – | – | – | –
Cn1cc(-c2cc(Oc3ccc4nc(N[C@@H]5CCCC[C@H]5O)sc4c3)ccn2)cn1 [Example 344, (1R,2R)-2-(6-(2-(1-methyl-1H-pyrazol-4-yl)pyridin-4-yloxy)benzo[d]thiazol-2-ylamino)cyclohexanol] | – | 45 | – | – | 65 | – | – | – | – | – | – | 95 | 100 | 100
c1cc(Oc2ccc3nc(NCC4CCCCC4)sc3c2)cc(-c2ncco2)n1 [Example 342, N-(cyclohexylmethyl)-6-(2-(oxazol-2-yl)pyridin-4-yloxy)benzo[d]thiazol-2-amine] | 87 | 84 | – | 100 | 61 | – | – | – | – | – | 75 | – | – | –
Nc1ncc(-c2cc(Oc3ccc4nc(N[C@@H]5CCCC[C@H]5O)sc4c3)ccn2)cn1 [Example 346, (1R,2R)-2-(6-(2-(2-aminopyrimidin-5-yl)pyridin-4-yloxy)benzo[d]thiazol-2-ylamino)cyclohexanol] | 84 | 13 | – | 100 | 0 | – | – | – | – | – | 67 | – | – | –
CNC(=O)c1cc(Oc2ccc3nc(N[C@H]4CCCN(C(=O)C5CCCC5)C4)sc3c2)ccn1 [Example 335, (S)-4-(2-(1-(cyclopentanecarbonyl)piper-idin-3-ylamino)benzo[d]thiazol-6-yloxy)-N-methylpicolinamide] | 50 | 21 | – | 100 | 0 | – | – | – | – | – | 57 | – | – | –
CNC(=O)c1cc(Oc2ccc3nc(N[C@H](C)C4CCCCC4)sc3c2)ccn1 [Compound 138, 4-[2-((R)-1-Cyclohexyl-ethylamino)-benzothiazol-6-yloxy]-pyridine-2-carboxylic acid methylamide] | 88 | 93 | 100 | 99 | 93 | – | – | – | – | – | – | – | – | –
CNC(=O)c1cc(Oc2ccc3nc(NCc4ccccc4F)sc3c2)ccn1 [Compound 140, 4-[2-(2-Fluoro-benzylamino)-benzothiazol-6-yloxy]-pyridine-2-carboxylic acid methylamide] | 90 | 92 | 52 | 100 | 0 | – | – | – | – | – | – | – | – | –
CNC(=O)c1cc(Oc2ccc3nc(NCc4ccc5c(c4)CCO5)oc3c2)ccn1 [Compound 124, 4-{2-[(2,3-Dihydro-benzofuran-5-ylmethyl)-amino]-benzooxazol-6-yloxy}-pyridine-2-carboxylic acid methylamide] | 94 | 32 | 51 | 99 | 0 | – | – | – | – | – | – | – | – | –

Source: US8173689B2 (Novartis AG, priority 2006, dated 2012)
